The numbers were not newly measured in US20260237528A1, “DRUG COMBINATIONS SCREENING” (Hoffmann-La Roche Inc., priority 2023, published 2026), which cites them from elsewhere.

The structures appear in SMILES notation.

The data set has as its system tumour growth. As to conditions: tested alone.

As for `CN(C)CCCN1c2ccccc2Sc2ccc(Cl)cc21` [chlorpromazine], the anti-tumour activity entry is “Neither of these drugs showed any anti-tumour activity when tested alone”.

In the case of `N=C(N)c1ccc(OCCCCCOc2ccc(C(=N)N)cc2)cc1` [pentamidine], the anti-tumour activity result is “Neither of these drugs showed any anti-tumour activity when tested alone”.
